pIC50: −log10 of the molar value. Like-named read-outs stand apart in the source and are kept apart here.
How the values were obtained:
[1] = system: Shionogi mouse mammary carcinoma cells; experiment: Androgenic/antiandrogenic activity: inhibition of DHT-stimulated Shionogi cell number; assay type: cell-based; settings: Mus musculus, read-out: Shionogi Antiandrogenic Activity IC50, Table 1; DHT-stimulated Shionogi cell number
Human Androgen Receptor = molecular target: T1, Human Androgen Receptor (Homo sapiens, UniProt P10275); experiment: Androgen receptor binding assay ([3H]R1881, HAP) in cytosol of HEK-293 cells transfected with hAR; settings: Table 1; relative to R1881 = 100, transfected cells
T1 sequence (P10275 1-920): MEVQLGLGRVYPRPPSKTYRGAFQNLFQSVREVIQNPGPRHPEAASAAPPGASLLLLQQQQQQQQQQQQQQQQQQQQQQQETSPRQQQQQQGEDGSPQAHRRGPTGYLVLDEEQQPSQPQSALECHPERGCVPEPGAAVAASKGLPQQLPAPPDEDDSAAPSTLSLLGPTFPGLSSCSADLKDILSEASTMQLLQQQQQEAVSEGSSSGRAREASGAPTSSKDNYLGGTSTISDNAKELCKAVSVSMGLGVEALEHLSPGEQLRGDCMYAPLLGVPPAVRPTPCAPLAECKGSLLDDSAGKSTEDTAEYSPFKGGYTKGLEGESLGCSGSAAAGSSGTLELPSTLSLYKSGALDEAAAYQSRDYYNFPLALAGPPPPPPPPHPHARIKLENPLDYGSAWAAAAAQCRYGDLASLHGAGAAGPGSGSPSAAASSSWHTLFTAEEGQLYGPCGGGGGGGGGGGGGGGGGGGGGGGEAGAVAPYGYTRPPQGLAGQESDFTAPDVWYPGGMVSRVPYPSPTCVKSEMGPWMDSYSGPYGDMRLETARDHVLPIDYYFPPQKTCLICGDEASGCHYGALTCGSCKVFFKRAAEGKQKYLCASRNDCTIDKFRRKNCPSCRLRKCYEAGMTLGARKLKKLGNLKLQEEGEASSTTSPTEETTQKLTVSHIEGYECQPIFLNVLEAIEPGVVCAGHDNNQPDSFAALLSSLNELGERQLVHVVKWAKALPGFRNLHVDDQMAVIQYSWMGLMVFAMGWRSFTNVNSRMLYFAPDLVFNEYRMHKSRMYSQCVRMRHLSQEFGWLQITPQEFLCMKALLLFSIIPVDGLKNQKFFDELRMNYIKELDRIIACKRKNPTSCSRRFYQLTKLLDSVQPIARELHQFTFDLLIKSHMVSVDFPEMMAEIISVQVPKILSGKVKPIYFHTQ

[2] = system: rat prostate, seminal vesicle, levator ani muscle; experiment: Systemic antiandrogenic activity in orchidectomized immature male rats with DHT implant; assay type: in vivo; settings: Rattus norvegicus, 168 h, rat +DHT, 0.5 mg/animal daily 7 days
[3] = read-out: Lev Ani % inhibition, Table 1, s.c. or p.o. (route not marked), levator ani
[4] = read-out: Prostate % inhibition, Table 1, s.c. or p.o. (route not marked in cell)
[5] = read-out: SV % inhibition, Table 1, s.c. or p.o. (route not marked), seminal vesicle

SMILES: CC(C)NCc1cccc(OCCCN2C(=S)N(c3ccc(C#N)c(C(F)(F)F)c3)C(=O)C2(C)C)c1 [EM-7096]
- pIC50 [1]: 7.56
- Human Androgen Receptor Binding (%) RBA R1881 = 100 (Human Androgen Receptor): 3.0%
- inhibition in vivo at 0.5 mg [2, 3]: 50%
- inhibition in vivo at 0.5 mg [2, 4]: 42%
- inhibition in vivo at 0.5 mg [2, 5]: 64%

SMILES: CC(C)NCc1ccc(OCCCN2C(=S)N(c3ccc(C#N)c(C(F)(F)F)c3)C(=O)C2(C)C)cc1 [EM-7105]
- pIC50 [1]: 7.93
- Human Androgen Receptor Binding (%) RBA R1881 = 100 (Human Androgen Receptor): 11.7%
- inhibition in vivo at 0.5 mg [2, 3]: 45%
- inhibition in vivo at 0.5 mg [2, 4]: 60%
- inhibition in vivo at 0.5 mg [2, 5]: 81%

SMILES: CCC(=O)c1cccc(OCCCN2C(=S)N(c3ccc(C#N)c(C(F)(F)F)c3)C(=O)C2(C)C)c1 [EM-7113, 4-{4,4-dimethyl-5-oxo-3-[3-(3-propionyl-phenoxy)-propyl]-2-thioxo-imidazolidin-1-yl}-2-trifluoromethyl-benzonitrile]
- pIC50 [1]: 7.16
- Human Androgen Receptor Binding (%) RBA R1881 = 100 (Human Androgen Receptor): 30.5%
- inhibition in vivo at 0.5 mg [2, 3]: 58%
- inhibition in vivo at 0.5 mg [2, 4]: 42%
- inhibition in vivo at 0.5 mg [2, 5]: 70%

SMILES: CCC(CC)NCc1ccc(OCCCN2C(=S)N(c3ccc(C#N)c(C(F)(F)F)c3)C(=O)C2(C)C)cc1 [EM-7144]
- pIC50 [1]: 7.65
- Human Androgen Receptor Binding (%) RBA R1881 = 100 (Human Androgen Receptor): 14.0%
- inhibition in vivo at 0.5 mg [2, 3]: 41%
- inhibition in vivo at 0.5 mg [2, 4]: 45%
- inhibition in vivo at 0.5 mg [2, 5]: 61%

SMILES: CCNCc1ccc(OCCCN2C(=S)N(c3ccc(C#N)c(C(F)(F)F)c3)C(=O)C2(C)C)cc1 [EM-7148]
- pIC50 [1]: 8.21
- Human Androgen Receptor Binding (%) RBA R1881 = 100 (Human Androgen Receptor): 12.0%
- inhibition in vivo at 0.5 mg [2, 3]: 75%
- inhibition in vivo at 0.5 mg [2, 4]: 58%
- inhibition in vivo at 0.5 mg [2, 5]: 85%

SMILES: CCC(=O)c1ccc(OCCCN2C(=S)N(c3ccc(C#N)c(C(F)(F)F)c3)C(=O)C2(C)C)cc1 [EM-7154]
- pIC50 [1]: 7.70
- Human Androgen Receptor Binding (%) RBA R1881 = 100 (Human Androgen Receptor): 64.7%
- inhibition in vivo at 0.5 mg [2, 3]: 6%
- inhibition in vivo at 0.5 mg [2, 4]: 8%
- inhibition in vivo at 0.5 mg [2, 5]: 31%

SMILES: CC(=O)c1ccc(OCCCN2C(=S)N(c3ccc(C#N)c(C(F)(F)F)c3)C(=O)C2(C)C)cc1 [EM-7168]
- pIC50 [1]: 7.89
- Human Androgen Receptor Binding (%) RBA R1881 = 100 (Human Androgen Receptor): 49.3%
- inhibition in vivo at 0.5 mg [2, 3]: 0%
- inhibition in vivo at 0.5 mg [2, 4]: 14%
- inhibition in vivo at 0.5 mg [2, 5]: 54%

SMILES: CC(NC1CC1)c1ccc(OCCCN2C(=S)N(c3ccc(C#N)c(C(F)(F)F)c3)C(=O)C2(C)C)cc1 (stereo not drawn) [EM-7169]
- pIC50 [1]: 7.96
- Human Androgen Receptor Binding (%) RBA R1881 = 100 (Human Androgen Receptor): 21.7%
- inhibition in vivo at 0.5 mg [2, 3]: 31%
- inhibition in vivo at 0.5 mg [2, 4]: 45%
- inhibition in vivo at 0.5 mg [2, 5]: 72%

SMILES: CN(C)Cc1ccc(OCCCN2C(=S)N(c3ccc(C#N)c(C(F)(F)F)c3)C(=O)C2(C)C)cc1 [EM-7192]
- pIC50 [1]: 7.94
- Human Androgen Receptor Binding (%) RBA R1881 = 100 (Human Androgen Receptor): 15.6%
- inhibition in vivo at 0.5 mg [2, 3]: 0%
- inhibition in vivo at 0.5 mg [2, 4]: 53%
- inhibition in vivo at 0.5 mg [2, 5]: 75%

SMILES: CC(C)NC(=O)c1ccc(OCCCN2C(=S)N(c3ccc(C#N)c(C(F)(F)F)c3)C(=O)C2(C)C)cc1 [EM-7202]
- pIC50 [1]: 7.44
- Human Androgen Receptor Binding (%) RBA R1881 = 100 (Human Androgen Receptor): 37.0%
- inhibition in vivo at 0.5 mg [2, 3]: 0%
- inhibition in vivo at 0.5 mg [2, 4]: 26%
- inhibition in vivo at 0.5 mg [2, 5]: 63%

SMILES: CCC(NC(C)C)c1ccc(OCCCN2C(=S)N(c3ccc(C#N)c(C(F)(F)F)c3)C(=O)C2(C)C)cc1 (stereo not drawn) [EM-7203]
- pIC50 [1]: 8.05
- Human Androgen Receptor Binding (%) RBA R1881 = 100 (Human Androgen Receptor): 48.4%
- inhibition in vivo at 0.5 mg [2, 3]: 4%
- inhibition in vivo at 0.5 mg [2, 4]: 37%
- inhibition in vivo at 0.5 mg [2, 5]: 66%

SMILES: CCC(C)NCc1ccc(OCCCN2C(=S)N(c3ccc(C#N)c(C(F)(F)F)c3)C(=O)C2(C)C)cc1 (stereo not drawn) [EM-7225]
- pIC50 [1]: 7.90
- Human Androgen Receptor Binding (%) RBA R1881 = 100 (Human Androgen Receptor): 15.3%
- inhibition in vivo at 0.5 mg [2, 3]: 14%
- inhibition in vivo at 0.5 mg [2, 4]: 52%
- inhibition in vivo at 0.5 mg [2, 5]: 71%

SMILES: CCCNCc1ccc(OCCCN2C(=S)N(c3ccc(C#N)c(C(F)(F)F)c3)C(=O)C2(C)C)cc1 [EM-7227]
- pIC50 [1]: 7.97
- Human Androgen Receptor Binding (%) RBA R1881 = 100 (Human Androgen Receptor): 18.0%
- inhibition in vivo at 0.5 mg [2, 3]: 1%
- inhibition in vivo at 0.5 mg [2, 4]: 35%
- inhibition in vivo at 0.5 mg [2, 5]: 77%

SMILES: CC1(C)C(=O)N(c2ccc(C#N)c(C(F)(F)F)c2)C(=S)N1CCCOc1ccc(CN2CCCC2)cc1 [EM-7232, 4-{4,4-Dimethyl-5-oxo-3-[3-(4-pyrrolidin-1-ylmethyl-phenoxy)-]-2-thioxo-imidazolidin-1-yl}-2-trifluoro-benzonitrile]
- pIC50 [1]: 8.12
- Human Androgen Receptor Binding (%) RBA R1881 = 100 (Human Androgen Receptor): 19.0%
- inhibition in vivo at 0.5 mg [2, 3]: 70%
- inhibition in vivo at 0.5 mg [2, 4]: 45%
- inhibition in vivo at 0.5 mg [2, 5]: 84%

SMILES: CC(C)N(C)Cc1ccc(OCCCN2C(=S)N(c3ccc(C#N)c(C(F)(F)F)c3)C(=O)C2(C)C)cc1 [EM-7233]
- pIC50 [1]: 7.92
- Human Androgen Receptor Binding (%) RBA R1881 = 100 (Human Androgen Receptor): 15.0%
- inhibition in vivo at 0.5 mg [2, 3]: 70%
- inhibition in vivo at 0.5 mg [2, 4]: 54%
- inhibition in vivo at 0.5 mg [2, 5]: 82%

SMILES: CC(C)NC(C)c1ccc(OCCCN2C(=S)N(c3ccc(C#N)c(C(F)(F)F)c3)C(=O)C2(C)C)cc1 (stereo not drawn) [EM-7234, 4-(3-{3-[4-(1-Isopropylamino-ethyl)-phenoxy]-propyl}-4,4-dimethyl-5-oxo-2-thioxo-imidazolidin-1-yl)-2-tifluoromethyl-benzonitile]
- pIC50 [1]: 8.21
- Human Androgen Receptor Binding (%) RBA R1881 = 100 (Human Androgen Receptor): 30.4%
- inhibition in vivo at 0.5 mg [2, 3]: 75%
- inhibition in vivo at 0.5 mg [2, 4]: 50%
- inhibition in vivo at 0.5 mg [2, 5]: 82%

SMILES: CCN(C)Cc1ccc(OCCCN2C(=S)N(c3ccc(C#N)c(C(F)(F)F)c3)C(=O)C2(C)C)cc1 [EM-7242]
- pIC50 [1]: 8.01
- Human Androgen Receptor Binding (%) RBA R1881 = 100 (Human Androgen Receptor): 18.0%
- inhibition in vivo at 0.5 mg [2, 3]: 55%
- inhibition in vivo at 0.5 mg [2, 4]: 41%
- inhibition in vivo at 0.5 mg [2, 5]: 72%

SMILES: CC(c1ccc(OCCCN2C(=S)N(c3ccc(C#N)c(C(F)(F)F)c3)C(=O)C2(C)C)cc1)N(C)C (stereo not drawn) [EM-7243]
- pIC50 [1]: 7.85
- Human Androgen Receptor Binding (%) RBA R1881 = 100 (Human Androgen Receptor): 14.0%
- inhibition in vivo at 0.5 mg [2, 3]: 73%
- inhibition in vivo at 0.5 mg [2, 4]: 34%
- inhibition in vivo at 0.5 mg [2, 5]: 72%

SMILES: CC1(C)C(=O)N(c2ccc(C#N)c(C(F)(F)F)c2)C(=S)N1CCCOc1ccc(CN2CCOCC2)cc1 [EM-7248]
- pIC50 [1]: 7.72
- Human Androgen Receptor Binding (%) RBA R1881 = 100 (Human Androgen Receptor): 32.4%
- inhibition in vivo at 0.5 mg [2, 3]: 44%
- inhibition in vivo at 0.5 mg [2, 4]: 37%
- inhibition in vivo at 0.5 mg [2, 5]: 62%

SMILES: COC(=O)c1ccc(OCCCN2C(=S)N(c3ccc(C#N)c(C(F)(F)F)c3)C(=O)C2(C)C)cc1 [EM-7260]
- pIC50 [1]: 7.77
- Human Androgen Receptor Binding (%) RBA R1881 = 100 (Human Androgen Receptor): 93.3%
- inhibition in vivo at 0.5 mg [2, 3]: 0%
- inhibition in vivo at 0.5 mg [2, 4]: 25%
- inhibition in vivo at 0.5 mg [2, 5]: 47%

SMILES: Cc1cc(CNC(C)C)ccc1OCCCN1C(=S)N(c2ccc(C#N)c(C(F)(F)F)c2)C(=O)C1(C)C [EM-7297]
- pIC50 [1]: 8.20
- Human Androgen Receptor Binding (%) RBA R1881 = 100 (Human Androgen Receptor): 59.0%
- inhibition in vivo at 0.5 mg [2, 3]: 31%
- inhibition in vivo at 0.5 mg [2, 4]: 29%
- inhibition in vivo at 0.5 mg [2, 5]: 37%

From US7709516B2, “Helix 12 directed non-steroidal antiandrogens” (Endorecherche, Inc., priority 2005, dated 2010)
